According to patent US20120302609A1, “Pyrazolines for the Modulation of PKM2” (Dynamix Pharmaceuticals LTD., priority 2011, published 2012):
pIC50: −log10 of the molar value.

Tests used:
[1] = tested on: H1299 (Non-small cell lung carcinoma cell line); test: Cell proliferation index assay, Assay Protocol II (Fluofarma, flow cytometry); format: cell-based; conditions: Homo sapiens, NCI-H1299
Description: In a second assay to determine the inhibition of cell proliferation by a test compound, cell proliferation of the cell line of interest was measured by a cell proliferation index assay using Fluofarma (www.fluofarma.com) based technology. This assay is based on the dilution rate of a fluorescent membrane marker, which is a direct function of the number of cell divisions. Briefly, the assay is performed by loading the cells with a non-toxic fluorescent phospholipid analog before the seeding. […] Flow cytometry analysis of the fluorescent probe is performed after the loading of the cells both prior to, as well as after treatment with various concentrations of the test compound. The dilution rate of the fluorescent probe at the single cell level is directly correlated to the number of cell divisions.

[2] = tested on: H1299 (Non-small cell lung carcinoma cell line); test: Cell proliferation, Assay Protocol I (CellTiter-Glo); format: cell-based; conditions: Homo sapiens, NCI-H1299, 96 total hours of culture
Description: (§1) Growth inhibitory activity against the human tumor cell lines was determined using Promega's CellTiter-Glo® assay. The cell lines of interest were placed in a 96-well microculture plate (Costar® white, flat bottom #3917) in a total volume of 90 μL/well. After 24 hours of incubation in a humidified incubator at 37° C. with 5% CO2 and 95% air, 10 μL of serially diluted test compounds in growth medium were added to each well. After 96 total hours of culture in a CO2 incubator, the plated cells and CellTiter-Glo® (Promega # G7571) reagents were brought to room temperature to equilibrate for 30 minutes. 100 μL of CellTiter-Glo® reagent was added to each well. The plate was shaken for 2 minutes and then left to equilibrate for 10 minutes before reading luminescence on the Tecan GENios microplate reader.
(§2) Percent inhibition of cell growth was calculated relative to untreated control wells. All tests were performed in duplicate for each concentration level. The IC50 value for the test compounds was estimated using Prism 3.03 by curve-fitting the data.

[3] = tested on: SW480 (Colorectal cancer cell line); test: as above; format: cell-based; conditions: Homo sapiens
Description: as §1, §2

[4] = tested on: HepG2 (Hepatocellular cancer cell line); test: as above; format: cell-based; conditions: Homo sapiens
Description: as §1, §2

[5] = tested on: HT-29 (Colorectal cancer cell line); test: as above; format: cell-based; conditions: Homo sapiens
Description: as §1, §2

HepG2 (liver) = test: Cell proliferation assay (XTT); format: cell-based; conditions: Homo sapiens, Complete media, Assay duration: 72 hours, Readout: XTT
Source text: (§3) The assay is based on the ability of metabolic active cells to reduce the tetrazolium salt XTT to orange colored compounds of formazan. The dye formed is water soluble and the dye intensity can be read at a given wavelength with a spectrophotometer. The intensity of the dye is proportional to the number of metabolic active cells. The use of multiwell plates and an ELISA reader enables testing a large number of samples and obtaining easy and rapid results. The test procedure includes cultivation of cells in a 96-well plate, adding the XTT reagent and incubation for 2-24 hours. During incubation an orange color is formed, the intensity of which can be measured with a spectrophotometer, in this instance with an ELISA reader. The greater the number of active cells in the well, the greater the activity of mitochondria enzymes, and the higher the concentration of the dye formed, which can then be measured and quantitated.
• 1. […] The absorbance of the samples was measured against a background control as a blank (see 7) with a spectrophotometer (ELISA reader) at a wavelength of 450-500 nanometer. In order to measure reference absorbance (to measure non-specific readings), a wavelength of 630-690 nanometer was used and subtracted from the 450-500 nanometer measurement. • 7. […] This background absorbance depends on the culture medium, pH, incubation time and length of exposure to light. […]

HT-29 (colon) = test: Cell proliferation assay (XTT or CellTiter-Glo); format: cell-based; conditions: Homo sapiens
Description: Day 0 Cells were seeded at 3000 cells/well in 100 μl full media in 96-well culture plates (60 wells/plate, external wells filled with 100 μl PBS) and incubated overnight. • Day 1 On the following day, full media was changed to the tested media and compounds were added in 0.5% DMSO final. • Day 2-5 Cells were incubated over 72 hr. • Day 5 Cell proliferation was assessed using XTT proliferation assay as follows:
as §3, with “The intensity of the dye is proportional to the number of metabolic active cells.” left out, “The test procedure includes cultivation of cells in a 96-well plate, adding the XTT reagent and incubation for 2-24 hours.” left out
• 1. […] The absorbance of the samples was measured against a background control as a blank (see 7) with a spectrophotometer (ELISA reader) at a wavelength of 450-500 nanometer. […] The average absorbance of the blank control wells was subtracted from that of the other wells. […]

HCT-116 (colon) = test: Cell proliferation assay (CellTiter-Glo Luminescent); format: cell-based; conditions: Homo sapiens, 1 mM glucose, 96 hr
H1299 cells = test: Cell cycle analysis; format: cell-based, human; conditions: 48 hours, FIG. 6

SMILES	pIC50 [1]	pIC50 [2]	pIC50 [3]	pIC50 [4]	pIC50 [5]	AC50 (HepG2 (liver)) [µM]	AC50 (HT-29 (colon); 1 mM glucose, Assay duration: 72 hours, Readout: XTT) [µM]	AC50 (HT-29 (colon); Complete media, 96 hr, CellTiter-Glo) [µM]	AC50 (HCT-116 (colon)) [µM]	cell cycle analysis (H1299 cells)
CCS(=O)(=O)Nc1ccc(C2=NN(C(C)=O)C(c3ccc(OC)cc3)C2)cc1 (racemic) [Compound 1A, N-(4-(1-acetyl-5-(4-methoxyphenyl)-4,5-dihydro-1H-pyrazol-3-yl)phenyl)ethanesulfonamide]	4.00 to 4.40	4.00 to 4.40	4.00 to 4.40	4.00 to 4.40	< 4.00					
COc1ccc([C@@H]2CC(c3ccc(NS(=O)(=O)c4ccc(F)cc4)cc3)=NN2C(C)=O)cc1 [Compound 13A, (S)—N-(4-(1-acetyl-5-(4-methoxyphenyl)-4,5-dihydro-1H-pyrazol-3-yl)phenyl)-4-fluorobenzenesulfonamide]						> 20	3 to 10	10 to 20	10 to 20	most cells were arrested at the G1/S phase
